Laboratory results as given in the supplement of paper PMC11061612.

Columns and labels:
EW-11 (Ewing's Sarcoma) = test: combination Emax (second highest fraction inhibited in the dose matrix, 72 h); higher = more inhibition; extreme values may be limits of the assay
Method in brief: (§1)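 Bliss excess equals the observed combination effect minus the expected value EA + EB − EA·EB, where EA and EB are the effects of each agent alone. Combination Emax is the second-highest inhibition within the matrix. Inhibition was scaled from CellTiter-Glo 2.0 luminescence, with 0 set by vehicle wells and 1 by blank wells, after 72 hours of two-drug dosing of cells plated in 1536-well plates.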

[1] = system: HH (T-Cell Non-Hodgkin's Lymphoma); test: Bliss excess, mean over the matrix (fraction); higher = more synergy
Method in brief: as §1

[2] = system: HuCCT1 (Biliary Tract Carcinoma); test: as above
Method in brief: as §1

[3] = system: SW1710 (Bladder Carcinoma); test: as above
Method in brief: as §1

CAL-72 (Osteosarcoma) = test: as above
Method in brief: as §1

[4] = system: SNU-449 (Hepatocellular Carcinoma); test: as above
Method in brief: as §1

[5] = system: OVCAR-5 (Ovarian Carcinoma); test: as above
Method in brief: as §1

[6] = system: NCI-H524 (Small Cell Lung Carcinoma); test: as above
Method in brief: as §1

NCI-H2052 (Mesothelioma) [7] = test: combination Emax (second highest fraction inhibited in the dose matrix, 72 h); higher = more inhibition; extreme values may be limits of the assay
Method in brief: as §1

[8] = system: L-428 (Hodgkin's Lymphoma); test: as above
Method in brief: as §1

BPH-1 (Non-Cancerous) = test: as above
Method in brief: as §1

[9] = system: HeLa (Cervical Carcinoma); test: Bliss excess, mean over the matrix (fraction); higher = more synergy
Method in brief: as §1

[10] = system: NUGC-4 (Gastric Carcinoma); test: as above
Method in brief: as §1

NCI-H2052 (Mesothelioma) [11] = test: as above
Method in brief: as §1

[12] = system: LCLC-97TM1 (Non-Small Cell Lung Carcinoma); test: as above
Method in brief: as §1

[13] = system: NCI-H209 (Small Cell Lung Carcinoma); test: as above
Method in brief: as §1

[14] = system: Detroit562 (Head and Neck Carcinoma); test: as above
Method in brief: as §1

[15] = system: HuH-7 (Hepatocellular Carcinoma); test: as above
Method in brief: as §1

[16] = system: ALL-PO (B-Lymphoblastic Leukemia); test: as above
Method in brief: as §1

BE2-M17 (Neuroblastoma) = test: as above
Method in brief: as §1

| SMILES | combination Emax (EW-11 (Ewing's Sarcoma)) | Bliss excess [1] | Bliss excess [2] | Bliss excess [3] | Bliss excess (CAL-72 (Osteosarcoma)) | Bliss excess [4] | Bliss excess [5] | Bliss excess [6] | combination Emax (NCI-H2052 (Mesothelioma) [7]) | combination Emax [8] | combination Emax (BPH-1 (Non-Cancerous)) | Bliss excess [9] | Bliss excess [10] | Bliss excess (NCI-H2052 (Mesothelioma) [11]) | Bliss excess [12] | Bliss excess [13] | Bliss excess [14] | Bliss excess [15] | Bliss excess [16] | Bliss excess (BE2-M17 (Neuroblastoma)) |
| --- | --- | --- | --- | --- | --- | --- | --- | --- | --- | --- | --- | --- | --- | --- | --- | --- | --- | --- | --- | --- |
| CN(CCO)CC[C@H](CSc1ccccc1)Nc1ccc(S(=O)(=O)NC(=O)c2ccc(N3CCC([C@@H](O)c4ccccc4-c4ccc(Cl)cc4)CC3)cc2)cc1S(=O)(=O)C(F)(F)F [AZD4320] + CC(=O)O[C@H]1C(=O)[C@@]2(C)[C@H]([C@H](OC(=O)c3ccccc3)[C@]3(O)C[C@H](OC(=O)[C@H](O)[C@@H](NC(=O)c4ccccc4)c4ccccc4)C(C)=C1C3(C)C)[C@]1(OC(C)=O)CO[C@@H]1C[C@@H]2O [Paclitaxel] (first compound max 1 µM, 7x7, partner max 3 µM) | 0.927 | 0.254 | 0.0276 | 0.141 | 0.19 | -0.0162 | 0.0576 | 0.0333 |  |  |  |  |  |  |  |  |  |  |  |  |
| CN(CCO)CC[C@H](CSc1ccccc1)Nc1ccc(S(=O)(=O)NC(=O)c2ccc(N3CCC([C@@H](O)c4ccccc4-c4ccc(Cl)cc4)CC3)cc2)cc1S(=O)(=O)C(F)(F)F [AZD4320] + CCN(CCO)CCCOc1ccc2c(Nc3cc(CC(=O)Nc4cccc(F)c4)[nH]n3)ncnc2c1 [AZD2811] (first compound max 1 µM, 7x7, partner max 1 µM) | 0.865 | -0.0135 | -0.0283 | -0.0291 | 0.0528 | -0.0649 | -0.0458 | -0.0163 | 0.128 | 0.847 | 0.893 | -0.0242 | -0.0407 | -0.0462 | 0.0642 | 0.184 | 0.0043 | -0.0268 | -0.009 | 0.12 |
| CN(CCO)CC[C@H](CSc1ccccc1)Nc1ccc(S(=O)(=O)NC(=O)c2ccc(N3CCC([C@@H](O)c4ccccc4-c4ccc(Cl)cc4)CC3)cc2)cc1S(=O)(=O)C(F)(F)F [AZD4320] + C[C@@H]1COCCN1C2=NC(=NC(=C2)C3(CC3)[S@](=N)(=O)C)C4=C5C=CNC5=NC=C4 [AZD6738] (first compound max 1 µM, 7x7, partner max 10 µM) | 0.957 | -0.0454 | -0.0681 | -0.0455 | 0.05 | -0.0721 | -0.0282 | -0.0467 | 0.439 | 0.956 | 0.441 | -0.0319 | -0.0172 | -0.0021 | -0.0433 | 0.0545 | -0.015 | -0.0144 | 0.0019 | -0.0458 |
| CN(CCO)CC[C@H](CSc1ccccc1)Nc1ccc(S(=O)(=O)NC(=O)c2ccc(N3CCC([C@@H](O)c4ccccc4-c4ccc(Cl)cc4)CC3)cc2)cc1S(=O)(=O)C(F)(F)F [AZD4320] + C[C@@H](Nc1cc(F)cc(F)c1)c1cc(C(=O)N(C)C)cc2c(=O)cc(N3CCOCC3)oc12 [AZD8186] (first compound max 1 µM, 7x7, partner max 3 µM) | 0.938 | 0.012 | 0.0583 | 0.0263 |  | 0.0093 | -0.0133 | 0.0121 | 0.262 | 0.748 | 0.733 | 0.0156 | 0.0385 | -0.0278 | -0.014 | 0.0529 | 0.0261 | 0.0262 | 0.0509 | 0.0115 |
| CN(CCO)CC[C@H](CSc1ccccc1)Nc1ccc(S(=O)(=O)NC(=O)c2ccc(N3CCC([C@@H](O)c4ccccc4-c4ccc(Cl)cc4)CC3)cc2)cc1S(=O)(=O)C(F)(F)F [AZD4320] + Cc1cc2ncnn2cc1Nc1ncc2c(n1)n(C1CCOCC1)c(=O)n2C [AZD7648] (first compound max 1 µM, 7x7, partner max 10 µM) | 0.829 | -0.0459 | -0.0407 | -0.058 | 0.0278 | -0.0811 | -0.0452 | -0.044 | 0.245 | 0.844 | 0.373 | -0.0345 | -0.0725 | -0.0451 | -0.0214 | 0.0477 | -0.0281 | 0.004 | 0.0085 | -0.0059 |
| CN(CCO)CC[C@H](CSc1ccccc1)Nc1ccc(S(=O)(=O)NC(=O)c2ccc(N3CCC([C@@H](O)c4ccccc4-c4ccc(Cl)cc4)CC3)cc2)cc1S(=O)(=O)C(F)(F)F [AZD4320] + Nc1ccn([C@@H]2O[C@H](CO)[C@@H](O)C2(F)F)c(=O)n1 [Gemcitabine] (first compound max 1 µM, 7x7, partner max 0.3 µM) | 0.92 | -0.0085 | -0.0245 | -0.0401 | 0.129 | -0.0558 | -0.0486 | -0.0216 |  |  |  |  |  |  |  |  |  |  |  |  |
| COc1nnc2ccc(N3CCC(c4ccc(OCCN5CCN(C)C(=O)[C@H]5C)cc4)CC3)nn12 [AZD5153] + CN(CC[C@H](CSC1=CC=CC=C1)NC2=C(C=C(C=C2)S(=O)(=O)NC(=O)C3=CC=C(C=C3)N4CCC(CC4)[C@H](C5=CC=CC=C5C6=CC=C(C=C6)Cl)O)S(=O)(=O)C(F)(F)F)CCO [AZD4320] (first compound max 1 µM, 7x7, partner max 1 µM) |  |  |  |  |  |  |  |  | 0.189 | 0.943 | 0.928 | -0.033 | 0.0299 | -0.0348 | -0.0034 | 0.01 | 0.0847 | 0.11 | 0.0079 | 0.0682 |
| Cc1cc2ncnn2cc1Nc1ncc2c(n1)n(C1CCOCC1)c(=O)n2C [AZD7648] + C=CCn1c(=O)c2cnc(Nc3ccc(N4CCN(C)CC4)cc3)nc2n1-c1cccc(C(C)(C)O)n1 [AZD1775] (first compound max 10 µM, partner max 1 µM) | 0.599 | -0.0461 | 0.0065 | 0.0692 | -0.0194 | 0.0041 | -0.0038 | -0.0254 | 0.512 | 0.884 | 0.53 | -0.0542 | -0.0417 | -0.0039 | 0.0234 | -0.0177 | 0.0575 | 0.0039 | 0.0488 | -0.0837 |
| Cc1cc2ncnn2cc1Nc1ncc2c(n1)n(C1CCOCC1)c(=O)n2C [AZD7648] + CCN(CCO)CCCOc1ccc2c(Nc3cc(CC(=O)Nc4cccc(F)c4)[nH]n3)ncnc2c1 [AZD2811] (first compound max 10 µM, 7x7, partner max 1 µM) | 0.507 | -0.0598 | 0.0401 | 0.0167 | 0.0448 | 0.0117 | 0.043 | -0.0043 | 0.382 | 0.347 | 0.614 | 0.0511 | -0.0257 | -0.0104 | 0.0467 | 0.0054 | -0.0142 | -0.0065 | 0.0236 | 0.01 |
| Cc1cc2ncnn2cc1Nc1ncc2c(n1)n(C1CCOCC1)c(=O)n2C [AZD7648] + COc1cc([C@@H]2c3cc4c(cc3[C@@H](O[C@@H]3O[C@@H]5CO[C@@H](C)O[C@H]5[C@H](O)[C@H]3O)[C@H]3COC(=O)[C@H]23)OCO4)cc(OC)c1O [Etoposide] (first compound max 10 µM, 7x7, partner max 10 µM) | 0.682 | -0.0254 | 0.0335 | -0.0119 | 0.0314 | 0.0282 | 0.0481 | 0.101 |  |  |  |  |  |  |  |  |  |  |  |  |
| CC(=O)c1c(C)c2cnc(Nc3ccc(N4CCNCC4)cn3)nc2n(C2CCCC2)c1=O [Palbociclib] + CN(CC[C@H](CSC1=CC=CC=C1)NC2=C(C=C(C=C2)S(=O)(=O)NC(=O)C3=CC=C(C=C3)N4CCC(CC4)[C@H](C5=CC=CC=C5C6=CC=C(C=C6)Cl)O)S(=O)(=O)C(F)(F)F)CCO [AZD4320] (first compound max 10 µM, 7x7, partner max 1 µM) |  |  |  |  |  |  |  |  | 0.296 | 0.866 | 0.592 | -0.0385 | -0.0067 | -0.0159 | -0.0326 | 0.0266 | 0.0001 | -0.0254 | 0.0126 | 0.0726 |
| N#Cc1cnc(Nc2cc(NC[C@H]3CNCCO3)c(C(F)(F)F)cn2)cn1 [SRA737] + C=CCn1c(=O)c2cnc(Nc3ccc(N4CCN(C)CC4)cc3)nc2n1-c1cccc(C(C)(C)O)n1 [AZD1775] (first compound max 10 µM, partner max 1 µM) | 0.603 | 0.0569 | -0.0292 | 0.0292 | 0.0934 | 0.0354 | 0.0274 | 0.108 |  |  |  |  |  |  |  |  |  |  |  |  |
| N#Cc1cnc(Nc2cc(NC[C@H]3CNCCO3)c(C(F)(F)F)cn2)cn1 [SRA737] + CCc1c2c(nc3ccc(O)cc13)-c1cc3c(c(=O)n1C2)COC(=O)[C@]3(O)CC [SN-38] (first compound max 10 µM, 7x7, partner max 0.3 µM) | 0.682 | 0.017 | 0.0261 | 0.0736 | 0.0489 | 0.0341 | -0.0048 | 0.113 |  |  |  |  |  |  |  |  |  |  |  |  |
| N#Cc1cnc(Nc2cc(NC[C@H]3CNCCO3)c(C(F)(F)F)cn2)cn1 [SRA737] + O=c1[nH]cc(F)c(=O)[nH]1 [5-Fluorouracil] (first compound max 10 µM, 7x7, partner max 20 µM) | 0.5 | 0.0123 | 0.102 | -0.0212 | 0.0294 | -0.0175 | -0.0535 | 0.0593 |  |  |  |  |  |  |  |  |  |  |  |  |
| C[C@@H](c1ccc2nccn2c1)n1nnc2ncc(-c3cnn(C)c3)nc21 [Savolitinib] + CN(CC[C@H](CSC1=CC=CC=C1)NC2=C(C=C(C=C2)S(=O)(=O)NC(=O)C3=CC=C(C=C3)N4CCC(CC4)[C@H](C5=CC=CC=C5C6=CC=C(C=C6)Cl)O)S(=O)(=O)C(F)(F)F)CCO [AZD4320] (first compound max 1 µM, 7x7, partner max 1 µM) |  |  |  |  |  |  |  |  | 0.225 | 0.773 | 0.346 | -0.0391 | -0.0363 | -0.0147 | -0.0311 | -0.0172 | -0.0189 | -0.0064 | -0.0307 | -0.0337 |
